We go through 58 compounds from patent US7772271B2 (priority 2004, dated 2010).

In general, melting point refers to the temperature, or range, at which the solid turns liquid.

The compound `CCOc1ccc2c(C#N)c(-c3ccc(NC(=O)OC4CCN(S(=O)(=O)C5CC5)CC4)cc3)n(C3CCC3)c2c1` [Compound 3071] gave a melting point of 236 to 241 °C. `CC(C)OC(=O)Nc1ccc(-c2c(C#N)c3ccc(N4CCOCC4)cc3n2C2CCC2)cc1Cl` [Compound 3011]: the melting point is 196 to 199 °C. Turning to `N#Cc1c(-c2ccc(NC(=O)NC3CCC3)cc2)n(C2CCC2)c2cc(N3CCOCC3)ccc12` [Compound 2863], the melting point was 172 °C (dec.). The same measure for `CCCS(=O)(=O)Nc1ccc(-c2c(C#N)c3ccc(OCCCN4C(=O)CN(C)C4=O)cc3n2C2CCC2)cc1` [Compound 3299]: 178 to 179 °C; for `CCn1nnc(COc2ccc3c(C#N)c(-c4ccc(NC(=O)OC(C)C)cc4)n(C4CCC4)c3c2)n1` [Compound 2667]: 184 to 190 °C; for `CC(OC(=O)Nc1ccc(-c2c(C#N)c3ccc(OCCNS(C)(=O)=O)cc3n2C2CCC2)cc1)C1CC1` (stereo not shown) [Compound 3228]: 92 to 95 °C. The same measure for `N#Cc1c(-c2ccc(OC(=O)N3CCOCC3)cc2)n(C2CCC2)c2cc(OC3CCOCC3)ccc12` [Compound 2814]: 178 to 179 °C; for `C[C@@H](OC(=O)Nc1c(F)cc(-c2c(C#N)c3ccc(OCCF)cc3n2C2CCC2)cc1F)C1CC1` [Compound 3040]: 176 to 180 °C; for `CC(C)NC(=O)N(C(=O)NC(C)C)c1ccc(-c2c(C#N)c3ccc(-c4ccccn4)cc3n2C2CCC2)cc1` [Compound 3226]: 193 to 194 °C.

Compound `N#Cc1c(-c2ccc(Nc3cccnc3)cc2)n(C2CCC2)c2cc(OC3CCOCC3)ccc12` [Compound 3165] registered a melting point of 210 to 212 °C.

`CCn1c(-c2ccc(NS(=O)(=O)CC)cc2)c(C#N)c2ccc(C(=O)N3CCN(c4ccccc4)CC3)cc21` [Compound 1362] had a melting point of 236 to 238 °C. The same measure for `N#Cc1c(-c2ccc(Oc3ncccn3)cc2)n(C2CCC2)c2cc(OC3CCOCC3)ccc12` [Compound 3167]: 168 to 169 °C; for `CC(OC(=O)Nc1ccc(-c2c(C#N)c3ccc(OCCS(C)(=O)=O)cc3n2C2CCC2)cc1)C1CC1` (stereo not shown) [compound 2695, {4-[3-Cyano-1-cyclobutyl-6-(2-methanesulfonyl-ethoxy)-1H-indol-2-yl]-phenyl}-carbamic acid 1-cyclopropyl-ethyl ester]: 135 to 140 °C; for `N#Cc1c(-c2ccc(NS(=O)(=O)C3CC3)cc2)n(CC2CC2)c2cc(OC3CCOCC3)ccc12` [Compound 2768]: 99 to 102 °C.

`CC(C)(C)OC(=O)Nc1ccc(-c2c(C#N)c3ccc(N4CCOCC4)cc3n2C2CCC2)cc1` [Compound 2764] displayed a melting point of 218 to 220 °C. The same measure for `CSc1nccc(Oc2ccc3c(C#N)c(-c4ccc(NC(=O)O[C@H](C)C5CC5)cc4)n(C4CCC4)c3c2)n1` [Compound 3089]: 172 to 177 °C; for `CS(=O)(=O)Nc1ccc(-c2c(C#N)c3ccc(N4CCOCC4)cc3n2C2CCC2)cc1` [Compound 2915]: 269 to 271 °C; for `C[C@@H](OC(=O)Nc1ccc(-c2c(C#N)c3ccc(OCCN4C(=O)CCC4=O)cc3n2C2CCC2)cc1)C1CC1` [Compound 3271]: 80 to 83 °C.

On to `N#Cc1nccnc1Oc1ccc2c(C#N)c(-c3ccc(NS(=O)(=O)CC4CCC4)cc3)n(CC3CC3)c2c1` [Compound 3238], for which the melting point lay within 205 to 208 °C.

`N#Cc1c(-c2ccc(NC(=O)OCc3ccccc3)cc2)n(C2CCC2)c2ccc(OCCCn3ccnc3)cc12` [Compound 2726] showed a melting point of 229 to 231 °C.

As for `CC(C)OC(=O)Nc1ccc(-c2c(C#N)c3ccc(OCC(O)CN4CCOCC4)cc3n2C2CCC2)cc1` (stereo not shown) [Compound 1418], the melting point lay within 183 to 185 °C.

`CCn1c(-c2ccc(N3CCCS3(=O)=O)cc2)c(C#N)c2ccc(OCCOC)cc21` [Compound 1332]: the melting point fell in the range of 213 to 215 °C. The same measure for `N#Cc1c(-c2ccc(Oc3ccccn3)cc2)n(C2CCC2)c2cc(OC3CCOCC3)ccc12` [Compound 3169]: 147 to 149 °C; for `CCOc1ccc2c(C#N)c(-c3ccc(N4CCCOC4=O)cc3)n(C3CCC3)c2c1` [compound 1346, 1-cyclobutyl-6-ethoxy-2-[4-(2-oxo-[1,3]oxazinan-3-yl)-phenyl]-1H-indole-3-carbonitrile]: 226 to 228 °C; for `CC(C)OC(=O)Nc1ccc(-c2c(C#N)c3cc(OCCCn4cccn4)ccc3n2C2CCC2)cc1` [Compound 2606]: 148 to 150 °C. Compound `Cc1ccnc(Oc2ccc3c(C#N)c(-c4ccc(NC(=O)O[C@H](C)C5CC5)cc4Cl)n(C4CCC4)c3c2)n1` [Compound 3059] registered a melting point of 97 to 109 °C. The same measure for `CCOc1ccc2c(C#N)c(-c3ccc(C(=O)NCCc4ccccn4)cc3)n(C3CCC3)c2c1` [Compound 2250]: 194 to 195 °C.

Take `CC(C)[C@H](C)OC(=O)Nc1ccc(-c2c(C#N)c3ccc(OC4COCOC4)cc3n2C2CCC2)cc1` [Compound 2859]: the melting point was 200 to 201 °C. The same measure for `CCC(CC)NS(=O)(=O)Nc1ccc(-c2c(C#N)c3ccc(OC4CCOCC4)cc3n2C2CCC2)cc1` [Compound 2836]: 193 to 195 °C.

`CCCS(=O)(=O)Nc1ccc(-c2c(C#N)c3ccc(Oc4ncccc4Cl)cc3n2C2CC2)cc1` [Compound 2943] showed a melting point of 215 to 217 °C.

`C[C@@H](OC(=O)Nc1ccc(-c2c(C#N)c3cc(OCCCn4ccnc4)ccc3n2C2CCC2)cc1)C1CC1` [Compound 2723]: the melting point was in the range of 182 to 184 °C. The same measure for `CCCS(=O)(=O)Nc1ccc(-c2c(C#N)c3ccc(Oc4nccc(C)n4)cc3n2C2CC2)cc1` [Compound 2939]: 239 to 241 °C; for `C[C@@H](OC(=O)Nc1ccc(-c2c(C#N)c3ccc(-c4ccccn4)cc3n2C2CCC2)cc1Cl)C(F)(F)F` [Compound 2994]: 84 to 94 °C; for `C[C@@H](OC(=O)Nc1ccc(-c2c(C#N)c3cc(N4CCOCC4)ccc3n2C2CCC2)cc1)c1ccc(F)cc1` [Compound 2829]: 163 to 168 °C. Take `CCNC(=O)Oc1ccc2c(C#N)c(-c3ccc(NC(=O)O[C@H](C)C4CC4)cc3)n(C3CCC3)c2c1` [Compound 3170]: the melting point lay in the range of 192 to 194 °C. The same measure for `CCCS(=O)(=O)Nc1ccc(-c2c(C#N)c3ccc(Oc4ncccc4C#N)cc3n2C2CCC2)c(C)c1` [Compound 3273]: 227 to 230 °C. The same measure for `CC(C)S(=O)(=O)Nc1ccc(-c2c(C#N)c3ccc(C(=O)N4CCOCC4)cc3n2C2CCC2)cc1` [Compound 2899]: 169 to 171 °C.

The compound `C[C@@H](OC(=O)Nc1ccc(-c2c(C#N)c3cc(Oc4ncccc4C#N)ccc3n2C2CCC2)cc1)C1CC1` [Compound 3256] gave a melting point of 217 to 218 °C. The same measure for `CC(OC(=O)Nc1ccc(-c2c(C#N)c3ccc(OCC(F)F)cc3n2C2CCC2)cc1Cl)C(F)(F)F` (stereo not shown) [Compound 3051]: 184 to 185 °C; for `CCOc1ccc2c(C#N)c(-c3ccc4c(c3)CCC(=O)N4)n(C3CCC3)c2c1` [Compound 3221]: 249 to 250 °C; for `CCCS(=O)(=O)Nc1ccc(-c2c(C#N)c3ccc(Oc4ncccc4Br)cc3n2C2CC2)cc1` [Compound 3003]: 223 to 225 °C. `Cc1cccn(-c2ccc3c(C#N)c(-c4ccc(NC(=O)O[C@H](C)C(F)(F)F)cc4)n(C4CCC4)c3c2)c1=O` [Compound 3341] returned a melting point of 265 to 266 °C.

As to `CC(C)n1c(-c2ccc(NC(=O)O[C@H](C)C3CC3)cc2)c(C#N)c2ccc(OC3CCS(=O)(=O)CC3)cc21` [Compound 3235], the melting point lay in the range of 249 to 256 °C. The same measure for `O=S1(=O)CCCN1c1ccc(-c2cc3ccc(Oc4ncccn4)cc3n2CC2CC2)cc1` [Compound 3326]: 98 to 99 °C; for `CCCS(=O)(=O)Nc1ccc(-c2c(C#N)c3cc(C(=O)N(C)CC)ccc3n2C2CCC2)cc1` [Compound 3096]: 138 to 139 °C. The same measure for `CCCS(=O)(=O)Nc1ccc(-c2c(C#N)c3ccc(-c4ccnn4C)cc3n2C2CCC2)cc1` [Compound 3203]: 241 to 242 °C. The same measure for `CCCS(=O)(=O)Nc1ccc(-c2c(C#N)c3ccc(Oc4nccnc4C#N)cc3n2CC2CC2)c(C)c1` [Compound 3248]: 238 to 241 °C; for `C[C@@H](OC(=O)Nc1ccc(-c2c(C#N)c3cc(Oc4ncccn4)ccc3n2C2CCC2)cc1)C1CC1` [Compound 2996]: 200 to 202 °C. Turning to `N#Cc1c(-c2ccc(NC3CC3)nc2)n(C2CCC2)c2cc(Oc3ncccn3)ccc12` [Compound 3313], the melting point is 244 to 246 °C. Take `COc1ccnc(Oc2ccc3c(C#N)c(-c4ccc(NS(=O)(=O)CC(C)C)cc4)n(C4CCC4)c3c2)n1` [Compound 2904]: the melting point was in the range of 182 to 186 °C. The same measure for `COCCOc1ccc2c(C#N)c(-c3ccc(NC(=O)O[C@H](C)c4ccc(F)cc4)cc3)n(C(C)C)c2c1` [Compound 2854]: 113 to 116 °C; for `CC(C)Nc1ccc(-c2c(C#N)c3ccc(Oc4ncccc4C#N)cc3n2C2CC2)cc1` [Compound 3213]: 195 to 197 °C; for `C[C@H](NS(=O)(=O)Nc1ccc(-c2c(C#N)c3ccc(Oc4nccnc4C#N)cc3n2C2CCC2)cc1)C1CC1` [Compound 3276]: 209 to 212 °C. The same measure for `COCCOc1ccc2c(C#N)c(-c3ccc(C(=O)N[C@H](C)c4ccc(OC)cc4)cc3)n(C3CCC3)c2c1` [Compound 3133]: 156 to 157 °C; for `Cc1noc(C)c1-c1ccc2c(C#N)c(-c3ccc(NC(=O)O[C@H](C)C4CC4)cc3)n(C3CCC3)c2c1` [Compound 3317]: 225 °C (dec.); for `N#Cc1c(-c2ccc(N3CCCS3(=O)=O)cc2)n(C2CC2)c2cc(OC3CCOCC3)ccc12` [Compound 2941]: 219 to 224 °C. The same measure for `CC(OC(=O)Nc1ccc(-c2c(C#N)c3ccc(OC4CCOCC4)cc3n2C2CCC2)cc1)C1CCC1` (stereo not shown) [Compound 2871]: 198 to 199 °C.

Compound `N#Cc1c(-c2ccc(NC(=O)OC3CCC3)cc2)n(C2CCC2)c2cc(OC3CCOC3)ccc12` (stereo not shown) [Compound 1455] had a melting point of 183 to 184 °C.
